Two compounds from publication PMC5691209, “Specific Targeting of Melanotic Cells with Peptide Ligated Photosensitizers for Photodynamic Therapy” (Scientific Reports, 2017) can be followed below.

Data set [1] relates to B16-F10 melanoma cells. In words: Cell proliferation with LED light irradiation (Incucyte confluence). The conditions noted are these: 5 µM. Format: cell-based, mouse. The procedure: B16-F10 murine melanoma cells were seeded at a density of 3000–4000 cells per well in 96-well black-view Perkin-Elmer plates using DMEM medium without phenol red. After an overnight incubation at 37 °C, the medium was aspirated from the wells and varying concentrations of synthetic peptide-photosensitizer constructs diluted in DMEM medium were added to the cells. The cells were incubated in dark at 37 °C for 4 h and then washed twice with 1X PBS buffer (200 µL). Fresh medium (300 µL) was added to the wells before placing the plates in the Incucyte ZOOM live cell imaging machine to capture the images after every hour. Percentage of confluence was measured over a time period of 24–72 h. For skin keratinocyte cell line N/TERT-1, the starting confluence was 75–85% of cell density for the initial light experiments. The higher cell density was used to mimic the physiological condition in the body, where keratinocytes are present in much larger numbers (30:1) than melanocytes.
This combinatorial equipment comprises light irradiation system with multiple wavelengths LED (From UVA to near IR) assembled with well-established incucyte that contains incubator and light microscope. […] Incucyte light microscope was used to capture images of the cell growth at every hour or two, from which percentage confluence (i.e. cell densities) were calculated. […]

The subject of data set [2] is B16-F10 mouse melanoma cells. The data set is described as follows: Melanin assay (extra- and intracellular melanin production). In kind it is cell-based. Particulars: B16-F10, 72 h at 37 °C, OD at 475 nm, α-MSH 10 nM, NAP, HPPH-NAP, MB, HPPH 1 µM, mean of three independent experiments. On the procedure:
B16-F10 mouse melanoma cells or human mid-pigmented melanoma cells FM55 were seeded in Nunc 6-well tissue culture plates using DMEM medium without phenol red. After overnight incubation of the cells at 37 °C, various photosensitizers (1 µM) or peptide conjugated photosensitizers (1 µM) were added at room temperature and the cells were incubated at 37 °C for 72 h. After three days of incubation, supernatants of cell (200 µL) were pipetted out from Nunc 6-well tissue culture plates as extracellular melanin pigment and three concurrent absorption measurements were taken at 475 nm using a Spectra Max MS microplate/cuvette reader (Fig. 3c,e). Adherent cells in the Nunc 6-well plates were detached with 0.02% EDTA and centrifuged at 2000 rpm for 3 min. […] Three concurrent absorption measurements were taken at 475 nm using a Spectra Max MS microplate/cuvette reader (Fig. 3d,f). […]
B16-F10 and FM55 melanin assays are represented as the average of three independent experiments expressed as Mean ± SEM. Differences between various groups were calculated using one way ANOVA post Bonferroni’s multiple comparison test and results were reported as significant if P-value was below 0.05. Phototoxicity SRB data of B16-F10, MeL, FM55 and N/TERT-1 was analyzed via student t test and significance was reported if P-value was below 0.05.

With “2-(1-hexyloxyethyl)-2-devinyl pyropheophorbide [HPPH]”, the “light induced cytotoxicity (cell proliferation)” value in data set [1] (B16-F10, 627 nm LED light 0.10 mW/cm^2, 48 h continuously) is reported as “cytotoxicity was observed”; in data set [1] (B16-F10, 660 nm LED light 0.10 mW/cm^2, 48 h continuously), “cytotoxicity was observed”. Further, in data set [2], the “extra- and intracellular melanin production” value is “did not induce any melanin production”.
In the case of `CN(C)c1ccc2nc3ccc(=[N+](C)C)cc-3sc2c1` [MB, methylene blue], the “extra- and intracellular melanin production” value in data set [2] is listed as “did not induce any melanin production”.
